From US7928103B2, “Compounds which modulate the CB2 receptor” (Boehringer Ingelheim International GmbH, priority 2006, dated 2011)

Assays:
human CB2R [1] = biological target: T1, human CB2R (Homo sapiens, UniProt P34972); test: CB2R mediated modulation of cAMP synthesis; assay type: cell-based; design: host or cells: CHO cells; settings: agonists decrease forskolin induced production of cAMP; CHO cells expressing human CB2R
Protocol: B. CB2R Mediated Modulation of cAMP Synthesis:
Compounds of the invention were evaluated for their CB2 agonist or inverse agonistic activity in accordance with the following experimental method.
CHO cells expressing human CB2R (Euroscreen) were plated at a density of 5000 cells per well in 384 well plates and incubated overnight at 37° C. After removing the media, the cells were treated with test compounds diluted in stimulation buffer containing 1 mM IBMX, 0.25% BSA and 10 uM Forskolin. The assay was incubated for 30 minutes at 37° C. Cells were lysed and the cAMP concentration was measured using DiscoverX-XS cAMP kit, following the manufacturer's protocol. In this setting, agonists will decrease forskolin induced production of cAMP while inverse agonists will further increase forskolin induced production of cAMP. EC50 of agonists were calculated as follows. The maximal amount of cAMP produced by forskolin compared to the level of cAMP inhibited by 1 uM CP55940 is defined as 100%. The EC50 value of each test compound was determined as the concentration at which 50% of the forskolin-stimulated cAMP synthesis was inhibited. Data was analyzed using a four-parameter logistic model. (Model 205 of XLfit 4.0).

human CB2R [2] = biological target: T1, human CB2R; test: Human CB2 receptor binding (3H-CP55940 competition, SPA); design: purchased Perkin Elmer Life and Analytical Sciences; host or cells: HEK293 EBNA cells, stably transfected; settings: through the use of the above described assays (CB1/CB2 binding, CB2R and CB1R cAMP); assay not specified further
Protocol: A. Human CB1 and CB2 Receptor Binding:
CB2 membranes were purchased and made from HEK293 EBNA cells stably transfected with human CB2 receptor cDNA (Perkin Elmer Life and Analytical Sciences). CB1 membranes were isolated from HEK cells stably co-transfected with human CB1 receptor and Gα16 cDNA's. The membrane preparation was bound to scintillation beads (Ysi-Poly-L-lysine SPA beads, GE Healthcare) for 4 hours at room temperature in assay buffer containing 50 mM Tris, pH 7.5, 2.5 mM EDTA, 5 mM MgCl2, 0.8% fatty acid free Bovine Serum Albumin. Unbound membrane was removed by washing in assay buffer. Membrane-bead mixture was added to 96-well assay plates in the amounts of 15 ug membrane per well (CB2) or 2.5 ug per well (CB1) and 1 mg SPA bead per well. Compounds were added to the membrane-bead mixture in dose-response concentrations ranging from 1×10^−5 M to 1×10^−10 M with 0.25% DMSO, final. The competition reaction was initiated with the addition of ^3H-CP55940 (Perkin Elmer Life and Analytical Sciences) at a final concentration of 1.5 nM (CB2) or 2.5 nM (CB1). The reaction was incubated at room temperature for 18 hours and read on TopCount NXT plate reader. Total and non-specific binding was determined in the absence and presence of 1.25 uM Win 55212 (Sigma). IC50 values for each compound were calculated as the concentration of compound that inhibits the specific binding of the radioactively labeled ligand to the receptor by 50% using the XLFit 4.1 four parameter logistic model. IC50 values were converted to inhibition constant (Ki) values using Cheng-Prusoff equation.

T1 sequence (P34972 whole entry): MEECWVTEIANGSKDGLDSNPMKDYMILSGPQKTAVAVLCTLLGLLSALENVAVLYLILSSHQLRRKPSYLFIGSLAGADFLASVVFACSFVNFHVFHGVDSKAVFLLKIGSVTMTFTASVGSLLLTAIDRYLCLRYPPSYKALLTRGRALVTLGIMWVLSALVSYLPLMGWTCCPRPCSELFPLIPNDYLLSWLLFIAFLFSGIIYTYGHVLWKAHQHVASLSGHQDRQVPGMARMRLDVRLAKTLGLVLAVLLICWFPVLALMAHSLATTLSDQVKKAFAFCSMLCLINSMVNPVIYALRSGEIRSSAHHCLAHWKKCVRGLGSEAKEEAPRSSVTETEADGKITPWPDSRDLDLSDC

| found to exhibit agonistic activity (human CB2R [1]) | found to exhibit activity (human CB2R [2]) | Structure (SMILES) |
| --- | --- | --- |
| exhibit agonistic activity | exhibit activity | c1ccc([C@H]2CN(Cc3ccc(Nc4cccc5cnccc45)nc3)CCO2)cc1 [Example 14, Isoquinolin-5-yl-[5-((S)-2-phenyl-morpholin-4-ylmethyl)-pyridin-2-yl]-amine] |
| exhibit agonistic activity | exhibit activity | c1ccc(Nc2ccc(CN3CCO[C@@H](c4ccccc4)C3)cn2)cc1 [Example 15, Phenyl-[5-((S)-2-phenyl-morpholin-4-ylmethyl)-pyridin-2-yl]-amine] |
| exhibit agonistic activity | exhibit activity | Fc1ccccc1Nc1ccc(CN2CCO[C@@H](c3ccccc3)C2)cn1 [Example 16, (2-Fluoro-phenyl)-[5-((S)-2-phenyl-morpholin-4-ylmethyl)-pyridin-2-yl]-amine] |
| exhibit agonistic activity | exhibit activity | Clc1ccccc1Nc1ccc(CN2CCO[C@@H](c3ccccc3)C2)cn1 [Example 17, (2-Chloro-phenyl)-[5-((S)-2-phenyl-morpholin-4-ylmethyl)-pyridin-2-yl]-amine] |
| exhibit agonistic activity | exhibit activity | Clc1cccc(Nc2ccc(CN3CCO[C@@H](c4ccccc4)C3)cn2)c1Cl [Example 18, (2,3-Dichloro-phenyl)-[5-((S)-2-phenyl-morpholin-4-ylmethyl)-pyridin-2-yl]-amine] |
| exhibit agonistic activity | exhibit activity | Clc1ccc(Nc2ccc(CN3CCO[C@@H](c4ccccc4)C3)cn2)c(Cl)c1 [Example 19, (2,4-Dichloro-phenyl)-[5-((S)-2-phenyl-morpholin-4-ylmethyl)-pyridin-2-yl]-amine] |
| exhibit agonistic activity | exhibit activity | Clc1ccc(Cl)c(Nc2ccc(CN3CCO[C@@H](c4ccccc4)C3)cn2)c1 [Example 20, (2,5-Dichloro-phenyl)-[5-((S)-2-phenyl-morpholin-4-ylmethyl)-pyridin-2-yl]-amine] |
| exhibit agonistic activity | exhibit activity | COc1ccccc1Nc1ccc(CN2CCO[C@@H](c3ccccc3)C2)cn1 [Example 21, (2-Methoxy-phenyl)-[5-((S)-2-phenyl-morpholin-4-ylmethyl)-pyridin-2-yl]-amine] |
| exhibit agonistic activity | exhibit activity | CCOc1ccccc1Nc1ccc(CN2CCO[C@@H](c3ccccc3)C2)cn1 [Example 22, (2-Ethoxy-phenyl)-[5-((S)-2-phenyl-morpholin-4-ylmethyl)-pyridin-2-yl]-amine] |
| exhibit agonistic activity | exhibit activity | CC(C)c1ccccc1Nc1ccc(CN2CCO[C@@H](c3ccccc3)C2)cn1 [Example 23, (2-Isopropyl-phenyl)-[5-((S)-2-phenyl-morpholin-4-ylmethyl)-pyridin-2-yl]-amine] |

Second part, the molecule before the results:

| Structure (SMILES) | found to exhibit agonistic activity (human CB2R [1]) | found to exhibit activity (human CB2R [2]) |
| --- | --- | --- |
| CC(C)(C)c1cc(Nc2ccc(CN3CCO[C@@H](c4ccccc4)C3)cn2)no1 [Example 1, (5-tert-Butyl-isoxazol-3-yl)-[5-((S)-2-phenyl-morpholin-4-ylmethyl)-pyridin-2-yl]-amine] | exhibit agonistic activity | exhibit activity |
| COc1ccc(Nc2ccc(CN3CCO[C@@H](c4ccccc4)C3)cn2)cc1 [Example 2, (4-Methoxy-phenyl)-[5-((S)-2-phenyl-morpholin-4-ylmethyl)-pyridin-2-yl]-amine] | exhibit agonistic activity | exhibit activity |
| CCOc1ccc(Nc2ccc(CN3CCO[C@@H](c4ccccc4)C3)cn2)cc1 [Example 3, (4-Ethoxy-phenyl)-[5-((S)-2-phenyl-morpholin-4-ylmethyl)-pyridin-2-yl]-amine] | exhibit agonistic activity | exhibit activity |
| FC(F)(F)Oc1ccc(Nc2ccc(CN3CCO[C@@H](c4ccccc4)C3)cn2)cc1 [Example 4, [5-((S)-2-Phenyl-morpholin-4-ylmethyl)-pyridin-2-yl]-(4-trifluoromethoxy-phenyl)-amine] | exhibit agonistic activity | exhibit activity |
| CCc1ccc(Nc2ccc(CN3CCO[C@@H](c4ccccc4)C3)cn2)cc1 [Example 5, (4-Ethyl-phenyl)-[5-((S)-2-phenyl-morpholin-4-ylmethyl)-pyridin-2-yl]-amine] | exhibit agonistic activity | exhibit activity |
| c1ccc([C@H]2CN(Cc3ccc(Nc4cccc5ccccc45)nc3)CCO2)cc1 [Example 6, Naphthalen-1-yl-[5-((S)-2-phenyl-morpholin-4-ylmethyl)-pyridin-2-yl]-amine] | exhibit agonistic activity | exhibit activity |
| c1ccc([C@H]2CN(Cc3ccc(Nc4ccc5ccccc5c4)nc3)CCO2)cc1 [Example 7, Naphthalen-2-yl-[5-((S)-2-phenyl-morpholin-4-ylmethyl)-pyridin-2-yl]-amine] | exhibit agonistic activity | exhibit activity |
| c1ccc([C@H]2CN(Cc3ccc(Nc4ccncn4)nc3)CCO2)cc1 [Example 8, [5-((S)-2-Phenyl-morpholin-4-ylmethyl)-pyridin-2-yl]-pyrimidin-4-yl-amine] | exhibit agonistic activity | exhibit activity |
| c1ccc([C@H]2CN(Cc3ccc(Nc4cccnc4)nc3)CCO2)cc1 [Example 9, [5-((S)-2-Phenyl-morpholin-4-ylmethyl)-pyridin-2-yl]-pyridin-3-yl-amine] | exhibit agonistic activity | exhibit activity |
| c1ccc([C@H]2CN(Cc3ccc(Nc4ccncc4)nc3)CCO2)cc1 [Example 10, [5-((S)-2-Phenyl-morpholin-4-ylmethyl)-pyridin-2-yl]-pyridin-4-yl-amine] | exhibit agonistic activity | exhibit activity |
| c1ccc([C@H]2CN(Cc3ccc(Nc4cnc5ccccc5c4)nc3)CCO2)cc1 [Example 11, [5-((S)-2-Phenyl-morpholin-4-ylmethyl)-pyridin-2-yl]-quinolin-3-yl-amine] | exhibit agonistic activity | exhibit activity |
| c1ccc([C@H]2CN(Cc3ccc(Nc4cccc5ncccc45)nc3)CCO2)cc1 [Example 12, [5-((S)-2-Phenyl-morpholin-4-ylmethyl)-pyridin-2-yl]-quinolin-5-yl-amine] | exhibit agonistic activity | exhibit activity |
| c1ccc([C@H]2CN(Cc3ccc(Nc4cccc5cccnc45)nc3)CCO2)cc1 [Example 13, [5-((S)-2-Phenyl-morpholin-4-ylmethyl)-pyridin-2-yl]-quinolin-8-yl-amine] | exhibit agonistic activity | exhibit activity |
